Test results: US20210290541A1, “SOLID DISPERSION OF HYDANTOIN DERIVATIVE” (Chugai Seiyaku Kabushiki Kaisha, priority 2018, published 2021)
≈ marks a conversion by molar mass, not a printed value.

Experiments:
Format in all cases: physicochemical
[1] = solubility in FaSSIF (excess amount, stirring 24 hours or more, centrifugation, HPLC)
Protocol: A suitable FaSSIF is, for example, an aqueous solution containing 28.7 mM potassium dihydrogen phosphate (KH2PO4), 103.3 mM KCl, 3 mM sodium taurocholate, and 0.8 mM L-α-phosphatidylcholine, and adjusted to pH 6.5 using NaOH.
Furthermore, for the purpose of evaluating the solubility of the type I crystal of the free form of Compound I in FaSSIF, an excess amount of the type I crystal of the free form of Compound I was placed in FaSSIF, and after soaking and stirring at 37° C. for 24 hours or more, this was subjected to centrifugation. […] In addition, the solubility of the type II crystal of the free form of Compound I evaluated in the same manner was 2 μg/mL.

[2] = organic solvent solubility; conditions: for solubility: organic solvent or mixture
Protocol: (§1) Compound I can be produced, for example, by the method described in Example 3 (Compound 7) of WO2014/092061.
A solvent suitable for solvent treatment may be any compound in which drugs, polymers, and bases are mutually soluble. Preferably, the solvent is also volatile and has a boiling point of 150° C. or lower. Furthermore, the solvent should have relatively low toxicity and should be removed from the solid dispersion to a level that is acceptable according to the guidelines of the International Council for Harmonization of Technical Requirements for Pharmaceuticals for Human Use (ICH). Removal of the solvent to this level may require a subsequent processing step such as tray-drying. Preferred solvents include alcohols such as methanol, ethanol, n-propanol, iso-propanol, and butanol; ketones such as acetone, methyl ethyl ketone, and methyl iso-butyl ketone; esters such as ethyl acetate and propyl acetate; and various other solvents, such as acetonitrile, methylene chloride, toluene, 1,1,1-trichloroethane, and tetrahydrofuran. Low-volatility solvents such as dimethylacetamide or dimethylsulfoxide can also be used in small amounts in mixtures with volatile solvents. A mixture of solvents such as 50% methanol and 50% acetone can also be used in the same manner as a mixture with water. Preferred solvents are ethanol, methanol, acetone, tetrahydrofuran, ethyl acetate, mixtures of these with water, and mixtures thereof. […] In particular, tetrahydrofuran and its mixed liquids can be referred to as preferred solvents.

[3] = pKa values
Description: as §1
In the present invention, the “base” preferably has a pKa value greater than that of Compound I. Since the lower pKa value of Compound I is about 8, the bases that can be used in the present invention desirably have a pKa value that is preferably more than about 9, even more preferably more than about 10, and most preferably more than about 11. Here, the term pKa is used in its conventional form. That is, pKa is the negative logarithm of the ionization constant of the acid. Unless otherwise specified, pKa is assumed to be measured in distilled water at 25° C.

[4] = storage stability of crystals
[5] = water solubility; conditions: 37° C., pH 6 to 7
Description: as §1

Cc1cc(N2C(=O)NC(=O)C2(C)C)cc(C)c1CCS(=O)(=O)N1CCC2(CC1)N=C(c1ccc(OC(F)(F)F)cc1)NC2=O [type II crystal of the free form of Compound I]
solubility in FaSSIF ([1]; 37° C.): 2 µg/mL (≈ 3.15 µM)

Cc1cc(N2C(=O)NC(=O)C2(C)C)cc(C)c1CCS(=O)(=O)N1CCC2(CC1)N=C(c1ccc(OC(F)(F)F)cc1)NC2=O [Compound I, 1-(3,5-dimethyl-4-(2-((4-oxo-2-(4-(trifluoromethoxy)phenyl)-1,3,8-triazaspiro[4.5]deca-1-en-8-yl)sulfonyl)ethyl)phenyl)-5,5-dimethylimidazolidine-2,4-dione]
solubility ([2]; acetone/water mixture (95:5 v/v), volume ratio 95:5, read-out: solubility in a mixed solution of acetone and water): ≥ 50 mg/mL | solubility ([2]; tetrahydrofuran, room temperature, read-out: solubility in THF (tetrahydrofuran)): ≥ 80 mg/mL | solubility ([2]; tetrahydrofuran/methanol mixture (95:5 v/v), volume ratio 95:5, read-out: solubility in a mixed solution of tetrahydrofuran and methanol): ≥ 100 mg/mL | pKa values [3]: about 8

Cc1cc(N2C(=O)NC(=O)C2(C)C)cc(C)c1CCS(=O)(=O)N1CCC2(CC1)N=C(c1ccc(OC(F)(F)F)cc1)NC2=O [type I crystal of the free form of Compound I]
solubility in THF (tetrahydrofuran) ([2]; room temperature): ≥ 80 mg/mL | storage stability [4]: excellent storage stability

Cc1cc(N2C(=O)NC(=O)C2(C)C)cc(C)c1CCS(=O)(=O)N1CCC2(CC1)N=C(c1ccc(OC(F)(F)F)cc1)NC2=O
solubility [5]: < 1 µg/mL | pKa ([3]; distilled water): 8 | solubility ([1]; FaSSIF, 37 °C, pH 6.5, fassif, thermodynamic from solid): 1 µg/mL (≈ 1.57 µM)
